ChEMBL document CHEMBL1126959, “HMG-CoA reductase inhibitors: design, synthesis, and biological activity of tetrahydroindazole-substituted 3,5-dihydroxy-6-heptenoic acid sodium salts” (J Med Chem, 1993)

Tests used:
[1] = target: T1, 3-hydroxy-3-methylglutaryl-coenzyme A reductase (Rattus norvegicus, UniProt P51639); test: Inhibitory activity against partially purified rat liver HMG-CoA reductase in vitro; 0.0040-0.053
T1 sequence (P51639 whole entry): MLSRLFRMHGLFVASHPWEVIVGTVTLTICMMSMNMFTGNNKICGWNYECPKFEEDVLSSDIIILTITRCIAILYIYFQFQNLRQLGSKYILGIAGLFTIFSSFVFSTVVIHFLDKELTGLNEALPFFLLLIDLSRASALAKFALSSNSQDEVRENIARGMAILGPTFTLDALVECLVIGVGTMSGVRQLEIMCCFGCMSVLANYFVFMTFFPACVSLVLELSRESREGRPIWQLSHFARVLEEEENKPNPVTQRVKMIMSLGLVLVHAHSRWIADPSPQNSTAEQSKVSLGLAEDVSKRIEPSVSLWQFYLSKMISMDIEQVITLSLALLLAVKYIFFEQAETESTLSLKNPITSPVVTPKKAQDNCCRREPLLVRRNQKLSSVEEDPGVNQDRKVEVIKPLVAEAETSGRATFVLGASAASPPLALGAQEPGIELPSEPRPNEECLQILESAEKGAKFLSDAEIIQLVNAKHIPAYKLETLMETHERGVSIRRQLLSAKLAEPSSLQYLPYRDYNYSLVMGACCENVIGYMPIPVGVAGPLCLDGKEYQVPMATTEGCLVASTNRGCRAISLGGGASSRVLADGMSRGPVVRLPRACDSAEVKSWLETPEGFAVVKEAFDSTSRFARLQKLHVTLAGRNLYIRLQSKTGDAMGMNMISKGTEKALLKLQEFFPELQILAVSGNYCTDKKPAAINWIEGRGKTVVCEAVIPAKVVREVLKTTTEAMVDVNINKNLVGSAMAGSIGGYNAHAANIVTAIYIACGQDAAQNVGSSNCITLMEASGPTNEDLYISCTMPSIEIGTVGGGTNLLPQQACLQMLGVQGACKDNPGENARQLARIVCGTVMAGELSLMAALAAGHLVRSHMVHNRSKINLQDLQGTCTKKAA

HepG2 [2] = test: Tested for ability to inhibit incorporation of [14C]acetate into cholesterol in cultured human hepatoma (HEP-G2) cells; 0.046-0.17; format: functional, cell-based
[3] = target: T1, 3-hydroxy-3-methylglutaryl-coenzyme A reductase; test: Inhibitory activity against partially purified rat liver HMG-CoA reductase in vitro; 1.2-3.3
[4] = target: T1, 3-hydroxy-3-methylglutaryl-coenzyme A reductase; test: Inhibitory activity against partially purified rat liver HMG-CoA reductase in vitro; 0.17-0.61
HepG2 [5] = test: Tested for ability to inhibit incorporation of [14C]acetate into cholesterol in cultured human hepatoma (HEP-G2) cells; 2.9-4.6; format: functional, cell-based
[6] = target: T1, 3-hydroxy-3-methylglutaryl-coenzyme A reductase; test: Inhibitory activity against partially purified rat liver HMG-CoA reductase in vitro; 1.9-5.3
HepG2 [7] = test: Tested for ability to inhibit incorporation of [14C]acetate into cholesterol in cultured human hepatoma (HEP-G2) cells; 0.061-0.10; format: functional, cell-based
[8] = target: T1, 3-hydroxy-3-methylglutaryl-coenzyme A reductase; test: Inhibitory activity against partially purified rat liver HMG-CoA reductase in vitro; 0.23-0.71
HepG2 [9] = test: Tested for ability to inhibit incorporation of [14C]acetate into cholesterol in cultured human hepatoma (HEP-G2) cells; 0.11-0.27; format: functional, cell-based
[10] = target: T1, 3-hydroxy-3-methylglutaryl-coenzyme A reductase; test: Inhibitory activity against partially purified rat liver HMG-CoA reductase in vitro; 0.047-0.098
[11] = target: T1, 3-hydroxy-3-methylglutaryl-coenzyme A reductase; test: Inhibitory activity against partially purified rat liver HMG-CoA reductase in vitro; 0.021-0.036
HepG2 [12] = test: Tested for ability to inhibit incorporation of [14C]acetate into cholesterol in cultured human hepatoma (HEP-G2) cells; 0.26-0.80; format: functional, cell-based
[13] = target: T1, 3-hydroxy-3-methylglutaryl-coenzyme A reductase; test: Inhibitory activity against partially purified rat liver HMG-CoA reductase in vitro; 0.0015-0.0049
HepG2 [14] = test: Tested for ability to inhibit incorporation of [14C]acetate into cholesterol in cultured human hepatoma (HEP-G2) cells; 0.013-0.81; format: functional, cell-based
HepG2 [15] = test: Tested for ability to inhibit incorporation of [14C]acetate into cholesterol in cultured human hepatoma (HEP-G2) cells; 0.15-1.7; format: functional, cell-based
[16] = target: T1, 3-hydroxy-3-methylglutaryl-coenzyme A reductase; test: Inhibitory activity against partially purified rat liver HMG-CoA reductase in vitro; 0.015-0.51
HepG2 [17] = test: Tested for ability to inhibit incorporation of [14C]acetate into cholesterol in cultured human hepatoma (HEP-G2) cells; 0.053-0.12; format: functional, cell-based
[18] = target: T1, 3-hydroxy-3-methylglutaryl-coenzyme A reductase; test: Inhibitory activity against partially purified rat liver HMG-CoA reductase in vitro; 1.8-3.7
[19] = target: T1, 3-hydroxy-3-methylglutaryl-coenzyme A reductase; test: Inhibitory activity against partially purified rat liver HMG-CoA reductase in vitro; 0.0050-0.016
HepG2 [20] = test: Tested for ability to inhibit incorporation of [14C]acetate into cholesterol in cultured human hepatoma (HEP-G2) cells; 0.22-0.48; format: functional, cell-based
[21] = target: T1, 3-hydroxy-3-methylglutaryl-coenzyme A reductase; test: Inhibitory activity against partially purified rat liver HMG-CoA reductase in vitro; 0.41-0.73
HepG2 [22] = test: Tested for ability to inhibit incorporation of [14C]acetate into cholesterol in cultured human hepatoma (HEP-G2) cells; 1.3-2.3; format: functional, cell-based
[23] = target: T1, 3-hydroxy-3-methylglutaryl-coenzyme A reductase; test: Inhibitory activity against partially purified rat liver HMG-CoA reductase in vitro; 1.7-2.6
[24] = target: T1, 3-hydroxy-3-methylglutaryl-coenzyme A reductase; test: Inhibitory activity against partially purified rat liver HMG-CoA reductase in vitro; 2.6-4.8

CC(C)(C)c1ccc(CC2CCCc3c2nn(-c2ccc(F)cc2)c3/C=C/[C@@H](O)C[C@@H](O)CC(=O)O)cc1 (some centres undefined)
IC50 [1]: 14 nM
IC50 (HepG2 [2]): 88 nM

CCC1CCCc2c1nn(-c1ccc(F)cc1)c2/C=C/[C@@H](O)C[C@@H](O)CC(=O)O (some centres undefined)
IC50 [3]: 2000 nM

COc1ccc(CC2CCCc3c2nn(-c2ccc(F)cc2)c3/C=C/[C@@H](O)C[C@@H](O)CC(=O)O)cc1OC (some centres undefined)
IC50 [4]: 320 nM
IC50 (HepG2 [5]): 3600 nM

CCC(C)C1CCCc2c1nn(-c1ccc(F)cc1)c2/C=C/[C@@H](O)C[C@@H](O)CC(=O)O (some centres undefined)
IC50 [6]: 3200 nM

CC[C@H](C)C(=O)O[C@H]1C[C@@H](C)C=C2C=C[C@H](C)[C@H](CC[C@@H]3C[C@@H](O)CC(=O)O3)[C@H]21 [LOVASTATIN]
IC50 (HepG2 [7]): 79 nM
IC50 [8]: 400 nM

O=C(O)C[C@H](O)C[C@H](O)/C=C/c1c2c(nn1-c1ccc(F)cc1)C(Cc1ccccc1)CCC2 (some centres undefined)
IC50 (HepG2 [9]): 170 nM
IC50 [10]: 68 nM

O=C(O)C[C@H](O)C[C@H](O)/C=C/c1c2c(nn1-c1ccc(F)cc1)C(Cc1cccc3ccccc13)CCC2 (some centres undefined)
IC50 [11]: 28 nM
IC50 (HepG2 [12]): 460 nM

O=C(O)C[C@H](O)C[C@H](O)/C=C/c1c2c(nn1-c1ccc(F)cc1)C(Cc1ccc(-c3ccccc3)cc1)CCC2 (some centres undefined)
IC50 [13]: 3 nM
IC50 (HepG2 [14]): 100 nM

COc1ccc(CC2CCCc3c2nn(-c2ccc(F)cc2)c3/C=C/[C@@H](O)C[C@@H](O)CC(=O)O)cc1 (some centres undefined)
IC50 (HepG2 [15]): 500 nM
IC50 [16]: 28 nM

CC(C)n1c(/C=C/C(O)CC(O)CC(=O)O)c(-c2ccc(F)cc2)c2ccccc21 (centres undefined) [FLUVASTATIN SODIUM]
IC50 (HepG2 [17]): 79 nM

O=C(O)C[C@H](O)C[C@H](O)/C=C/c1c2c(nn1-c1ccc(F)cc1)-c1ccccc1CCC2
IC50 [18]: 2600 nM

O=C(O)C[C@H](O)C[C@H](O)/C=C/c1c2c(nn1-c1ccc(F)cc1)C(Cc1ccc3ccccc3c1)CCC2 (some centres undefined)
IC50 [19]: 9 nM
IC50 (HepG2 [20]): 330 nM

O=C(O)C[C@H](O)C[C@H](O)/C=C/c1c2c(nn1-c1ccc(F)cc1)C(CCc1ccccc1)CCC2 (some centres undefined)
IC50 [21]: 540 nM
IC50 (HepG2 [22]): 1700 nM

CC1CCCc2c1nn(-c1ccc(F)cc1)c2/C=C/[C@@H](O)C[C@@H](O)CC(=O)O (some centres undefined)
IC50 [23]: 2100 nM

O=C(O)C[C@H](O)C[C@H](O)/C=C/c1c2c(nn1-c1ccc(F)cc1)CCCCC2
IC50 [24]: 3600 nM
